According to ChEMBL document CHEMBL3217447, “Biosynthetic gene cluster and antimicrobial activity of the elfamycin antibiotic factumycin” (2012):
≈ marks a conversion by molar mass, not a printed value.

How the values were obtained:
Format in all cases: functional
Escherichia coli [1] = assay: Antibacterial activity against Escherichia coli GDW914 assessed as growth inhibition
Klebsiella pneumoniae [2] = assay: Antibacterial activity against Klebsiella pneumoniae by microdilution checkerboard method in presence of tetracycline
Acinetobacter baumannii [3] = assay: Antibacterial activity against Acinetobacter baumannii mrH5 assessed as growth inhibition
Pseudomonas aeruginosa [4] = assay: Antibacterial activity against Pseudomonas aeruginosa PAO1 by microdilution checkerboard method in presence of tetracycline
Acinetobacter baumannii [5] = assay: Antibacterial activity against Acinetobacter baumannii ATCC 17978 assessed as growth inhibition
Escherichia coli [6] = assay: Antibacterial activity against Escherichia coli ATCC 25922 assessed as growth inhibition
Pseudomonas aeruginosa [7] = assay: Antibacterial activity against Pseudomonas aeruginosa GDW790 assessed as growth inhibition
Klebsiella pneumoniae [8] = assay: Antibacterial activity against Klebsiella pneumoniae GDW915 assessed as growth inhibition
Enterococcus faecalis [9] = assay: Antibacterial activity against Enterococcus faecalis ATCC 29212 assessed as growth inhibition
Klebsiella pneumoniae [10] = assay: Antibacterial activity against Klebsiella pneumoniae GDW917 assessed as growth inhibition
Acinetobacter baumannii [11] = assay: Antibacterial activity against Acinetobacter baumannii ATCC 17978 by microdilution checkerboard method in presence of tetracycline
Pseudomonas aeruginosa [12] = assay: Antibacterial activity against Pseudomonas aeruginosa GDW789 assessed as growth inhibition
Staphylococcus aureus [13] = assay: Antibacterial activity against Staphylococcus aureus ATCC 29213 assessed as growth inhibition
Staphylococcus aureus [14] = assay: Antibacterial activity against Staphylococcus aureus CMRSA5 assessed as growth inhibition
Enterococcus faecalis [15] = assay: Antibacterial activity against Enterococcus faecalis ATCC 51299 assessed as growth inhibition
Pseudomonas aeruginosa [16] = assay: Antibacterial activity against Pseudomonas aeruginosa GDW787 assessed as growth inhibition
Acinetobacter baumannii [17] = assay: Antibacterial activity against Acinetobacter baumannii B00919434 assessed as growth inhibition
Acinetobacter baumannii [18] = assay: Antibacterial activity against Acinetobacter baumannii B00636584 assessed as growth inhibition
Escherichia coli [19] = assay: Antibacterial activity against Escherichia coli […] by microdilution checkerboard method in presence of tetracycline
Escherichia coli [20] = assay: Antibacterial activity against Escherichia coli GDW916 assessed as growth inhibition
Acinetobacter baumannii [21] = assay: Antibacterial activity against Acinetobacter baumannii mrH4 assessed as growth inhibition
Staphylococcus aureus [22] = assay: Antibacterial activity against Staphylococcus aureus ATCC 29213 by microdilution checkerboard method in presence of tetracycline
Enterococcus faecalis [23] = assay: Antibacterial activity against Enterococcus faecalis ATCC 29212 by microdilution checkerboard method in presence of tetracycline
Acinetobacter baumannii [24] = assay: Antibacterial activity against Acinetobacter baumannii GDW786 assessed as growth inhibition
Staphylococcus aureus [25] = assay: Antibacterial activity against Staphylococcus aureus CMRSA7 assessed as growth inhibition
Acinetobacter baumannii [26] = assay: Antibacterial activity against Acinetobacter baumannii mrH4 by microdilution checkerboard method in presence of tetracycline
Escherichia coli [27] = assay: Antibacterial activity against Escherichia coli GDW918 assessed as growth inhibition
Staphylococcus aureus [28] = assay: Antibacterial activity against Staphylococcus aureus CMRSA6 assessed as growth inhibition
Pseudomonas aeruginosa [29] = assay: Antibacterial activity against Pseudomonas aeruginosa GDW788 assessed as growth inhibition
Acinetobacter baumannii [30] = assay: Antibacterial activity against Acinetobacter baumannii GDW787 assessed as growth inhibition
Acinetobacter baumannii [31] = assay: Antibacterial activity against Acinetobacter baumannii mrH3 assessed as growth inhibition
Pseudomonas aeruginosa [32] = assay: Antibacterial activity against Pseudomonas aeruginosa PAO1 assessed as growth inhibition

C/C=C\C=C\[C@@H]1O[C@](O)([C@H](CC)C(=O)NC/C=C/C=C(\C)[C@@H](OC)[C@@H](C)C(O)[C@@H](O)/C=C/C=C/C=C/C=C(\C)C(=O)c2c(O)ccn(C)c2=O)C[C@H](O)C1(C)C (some centres not stated)
MIC (Escherichia coli [1]): 128 mg/L (≈ 164 µM)
fractional inhibitory concentration index (FICI) (Klebsiella pneumoniae [2]): 0.5
MIC (Acinetobacter baumannii [3]): 8 mg/L (≈ 10.3 µM)
fractional inhibitory concentration index (FICI) (Pseudomonas aeruginosa [4]): 2
MIC (Acinetobacter baumannii [5]): 32 mg/L (≈ 41.1 µM)
MIC (Escherichia coli [6]): 64 mg/L (≈ 82.2 µM)
MIC (Pseudomonas aeruginosa [7]): 128 mg/L (≈ 164 µM)
MIC (Klebsiella pneumoniae [8]): > 128 mg/L
MIC (Enterococcus faecalis [9]): 16 mg/L (≈ 20.5 µM)
MIC (Klebsiella pneumoniae [10]): 128 mg/L (≈ 164 µM)
fractional inhibitory concentration index (FICI) (Acinetobacter baumannii [11]): 2
MIC (Pseudomonas aeruginosa [12]): > 128 mg/L
MIC (Staphylococcus aureus [13]): 32 mg/L (≈ 41.1 µM)
MIC (Staphylococcus aureus [14]): > 128 mg/L
MIC (Enterococcus faecalis [15]): 64 mg/L (≈ 82.2 µM)
MIC (Pseudomonas aeruginosa [16]): 128 mg/L (≈ 164 µM)
MIC (Acinetobacter baumannii [17]): 8 mg/L (≈ 10.3 µM)
MIC (Acinetobacter baumannii [18]): 16 mg/L (≈ 20.5 µM)
fractional inhibitory concentration index (FICI) (Escherichia coli [19]): 2
MIC (Escherichia coli [20]): 128 mg/L (≈ 164 µM)
MIC (Acinetobacter baumannii [21]): 8 mg/L (≈ 10.3 µM)
fractional inhibitory concentration index (FICI) (Staphylococcus aureus [22]): 2
fractional inhibitory concentration index (FICI) (Enterococcus faecalis [23]): 0.375
MIC (Acinetobacter baumannii [24]): 128 mg/L (≈ 164 µM)
MIC (Staphylococcus aureus [25]): > 128 mg/L
fractional inhibitory concentration index (FICI) (Acinetobacter baumannii [26]): 0.25
MIC (Escherichia coli [27]): 128 mg/L (≈ 164 µM)
MIC (Staphylococcus aureus [28]): > 128 mg/L
MIC (Pseudomonas aeruginosa [29]): 128 mg/L (≈ 164 µM)
MIC (Acinetobacter baumannii [30]): 128 mg/L (≈ 164 µM)
MIC (Acinetobacter baumannii [31]): 16 mg/L (≈ 20.5 µM)
MIC (Pseudomonas aeruginosa [32]): 128 mg/L (≈ 164 µM)
